Key:
Assay type in all cases: cell-based, human
HPASMC = experiment: MTT cell viability assay; settings: 100 μM CPP (H2O2 0.5 mM), 30-min incubation, OD 570 nm, quadruplicate
[1] = tested on: Akt phosphorylation in HPASMC; experiment: Growth factor-stimulated Akt phosphorylation in HPASMC; settings: for Akt activation in HPASMC by growth factor: 10 ng/mL PDGF or VEGF in serum-free medium, Western blot, three experiments
[2] = tested on: ERK phosphorylation in HPASMC; experiment: Growth factor-stimulated ERK phosphorylation in HPASMC; settings: for ERK activation in HPASMC by growth factor: 10 ng/mL PDGF or VEGF in serum-free medium, Western blot, three experiments
[3] = tested on: Akt phosphorylation in HPAEC; experiment: Growth factor-stimulated Akt phosphorylation in HPAEC; settings: 10 ng/mL PDGF or VEGF in serum-free medium; Western blot, three experiments
[4] = tested on: ERK phosphorylation in HPAEC; experiment: Growth factor-stimulated ERK phosphorylation in HPAEC; settings: for ERK activation in HPAEC by growth factor: 10 ng/mL PDGF or VEGF in serum-free medium, Western blot, three experiments

Compound	Effect on cell viability (MTT) (HPASMC)	Akt phosphorylation in HPASMC by EGF ([1]; 1 ng/mL EGF)	ERK phosphorylation in HPASMC by EGF ([2]; 1 ng/mL EGF)	Akt activation in HPASMC by growth factor [1]	Akt activation in HPAEC by growth factor [3]	ERK activation in HPASMC by growth factor [2]	Concentration at which the dose response of ERK activation maximized ([2]; HPASMC, increasing PDGF in serum-free medium) [ng/mL]	ERK activation in HPAEC by growth factor [4]	Concentration at which the dose response of ERK activation maximized ([4]; HPAEC, increasing VEGF in serum-free medium) [ng/mL]
OO [Hydrogen peroxide]	statistically significant toxicity								
EGF: epidermal growth factor (NSDSECPLSHDGYCLHDGVCMYIEALDKYACNCVVGYIGERCQYRDLKWWELR; UniProt P01133 971-1023, looked up)		induced the phosphorylation of both ERK and Akt	induced the phosphorylation of both ERK and Akt						
PDGF				activated	failed to activate Akt	activated	1	inactive	
VEGF				no activity	failed to activate Akt	no activity		strong ERK phosphorylation	1

Reference: paper PMC4390552 (Chemical biology & drug design, 2014)
